Test results published in publication PMC4380168 (Bioorganic & medicinal chemistry, 2015).
Like-named read-outs stand apart in the source and are kept apart here.

Assays:
MRC-5 = conditions: read-out: MRC-5 IC50; cytotoxicity against human eukaryotic cell lines; ref [5],[4b]; cited from earlier work
[1] = tested on: MDA-MB-231 (breast cancer); experiment: Cytotoxicity against MDA-MB-231 breast carcinoma cell line; assay type: cell-based; conditions: Homo sapiens
P.f. K1 = conditions: read-out: P.f. K1 IC50; antiprotozoal; ref [5],[4b]; cited from earlier work
[2] = Cytotoxicity against MRC-5 cell line; assay type: cell-based, human; conditions: human, MRC-5 cells (human lung fibroblast, embryonic cell line)
[3] = tested on: polio-infected HeLa cells; conditions: at 10^−7 M; ref [5],[4b]; cited from earlier work
SK-OV-3 (ovarian cancer) = experiment: Cytotoxicity against SK-OV-3 ovarian carcinoma cell line; assay type: cell-based, human
A549 (lung cancer) = experiment: Cytotoxicity against A549 lung carcinoma cell line; assay type: cell-based, human
[4] = ref [7]; cited from earlier work
[5] = tested on: MRC-5 (human lung fibroblast); experiment: Cytotoxicity against MRC-5 cell line; assay type: cell-based; conditions: read-out: MRC-5 EC50 (human lung fibroblast); triplicates

CC(=O)c1cccc(N[C@H]2[C@H](N)[C@@](NC(=O)N(C)C)([C@H](C)O)[C@@](C)(O)[C@@]2(O)COC(=O)c2c(C)cccc2O)c1 [Compound 1, pactamycin]
IC50 (MRC-5): 95 nM | EC50 ([1]; MDA-MB-231, read-out: MDA-MB-231 EC50): 124 nM | EC50 ([1]; MDA-MB-231, read-out: MDA-MB-231 EC50 (breast cancer)): 124 nM | IC50 (P.f. K1): 14.2 nM | EC50 [2]: 53 nM | inhibition of polio-infected HeLa cells [3]: complete inhibition | EC50 (SK-OV-3 (ovarian cancer); Homo sapiens, SK-OV-3, read-out: SK-OV-3 EC50 (ovarian cancer)): 129 nM | EC50 (A549 (lung cancer); Homo sapiens, A549, read-out: A549 EC50): 160 nM | EC50 (A549 (lung cancer); Homo sapiens, A549, read-out: A549 EC50 (lung cancer)): 160 nM

CC[C@]1(NC(=O)N(C)C)[C@@H](N)[C@H](Nc2cccc(C(C)=O)c2)[C@](O)(COC(=O)c2c(C)cccc2O)[C@]1(C)O [Compound 2, 7-Deoxypactamycin]
antiprotozoal activity relative to 1 [4]: increased antiprotozoal activity relative to 1

CC(=O)c1cccc(N[C@H]2[C@H](N)[C@]3(NC(=O)O[C@H]3C)[C@@](C)(O)[C@@]2(O)CO)c1 [Compound 21, De-6-MSA pactamycate]
EC50 [5]: 2930 nM | EC50 (SK-OV-3 (ovarian cancer); read-out: SK-OV-3 EC50 (ovarian cancer), triplicates): 3800 nM | EC50 (A549 (lung cancer); read-out: A549 EC50 (lung cancer), triplicates): 6000 nM

jogyamycin [Compound 3]
antiprotozoal activity relative to 1 [4]: increased antiprotozoal activity relative to 1
